Five molecules from US10227610B2, “Methods and compositions for enhancing nuclease-mediated gene disruption” (SANGAMO THERAPEUTICS, INC., priority 2013, dated 2019) can be followed below.

One assay concerns Hepa 1-6 cells. Description: Mutagenic repair (% indels) after albumin-specific ZFN, Surveyor/CelI assay and clone sequencing. Type of assay: cell-based. As for the experimental part:
In particular, the inhibitors Olaparib (PARP1-inhibitor) and NU7441 (DNA-PKcs inhibitor) were added 3 hours after mRNA delivery at concentration of 5 μM and 3-5 μM respectively. As a control, the ATM inhibitor KU55933 was added at a concentration of 10 μM (ATM has no direct role in DSB repair but is related to DNA-PKcs). After 15 hours, fresh inhibitors were added to the medium to counteract the decay of the inhibitors in the cell culture medium.
After a further 54 hours, cells were harvested and genomic DNA was prepared for Day 3 analysis by Surveyor™/CelI assay and DNA sequencing. For DNA sequencing the genomic target region of the ZFN was amplified by PCR, topo-cloned and 96 individual clones were sequenced. The sequences were analyzed and the results used to divide the clones into groups by the genome type (e.g. wild type genomes, those with insertions and/or deletions, and those with other modifications). At Day 3 harvest about a third of the cells were re-seeded in fresh medium without inhibitors and were grown until day 10 when they were harvested and analyzed by Surveyor™/CelI assay.

For assay [1], the system named is K562 cells. Description: ZFN-mediated targeted integration of ssOligo at CCR5 locus, RFLP assay and 96 colony sequencing. As to conditions: Day 3; for effect on targeted integration: KU55933 10 μM, Olaparib 5 μM added to DNA-PKcs inhibitor. It counts as cell-based, human. As for the experimental part:
K562 cells were transfected by Amaxa® electroporation system with plasmid DNA encoding a CCR5-specific ZFN pair (see, U.S. Pat. No. 7,951,925) and a single-stranded oligonucleotide (ssOligo) (120 bp) which has homology to the target region and harbors a unique restriction site (Avr II). The cells then were treated twice with small molecule inhibitors described in Example 1 (outlined in FIG. 2A). In particular, the inhibitors Olaparib (PARP1/2-inhibitor) and NU7441 (DNA-PKcs-inhibitor) were added 5 hours after the ZFN-encoding DNA delivery at concentration of 5 μM and 3 μM, respectively. As a control, the ATM inhibitor KU55933 was added at a concentration of 10 μM. After 15 hours, fresh inhibitors were added to the medium to counteract the decay of the inhibitors in the cell culture medium. After a further 54 hours, the cells were harvested and genomic DNA was prepared for Day 3 analysis by Surveyor™/CelI assay, RFLP analysis and DNA sequencing.
The RFLP assay was carried out by digestion of the PCR amplified target locus with a restriction enzyme cutting in the integrated ssOligo. For DNA sequencing, the genomic target region of the ZFN was amplified by PCR, topo-cloned and 96 individual clones were sequenced.

The test system of assay [2] is K562 cells. Nature of the assay: Targeted integration of AAVS1 oligo with double-stranded cleaving or nickase ZFNs, HindIII digestion. It counts as cell-based, human. As to conditions: NU1025 for 24 hr or 48 hr. As to the method:
In another experiment, K562 cells were treated with the PARP1 inhibitor NU1025. Briefly, two million K562 cells were nucleofected with 5 μg of double-stranded cleaving or nickase ZFNs specific for AAVS1 (U.S. Pat. No. 8,110,379) with or without 3 μl of an antisense AAVS1 oligo (100 μM). The cells were immediately treated with PARP inhibitor NU1025 after nucleofection for 24 hr or 48 hr. All cells were harvested 48 hr after nucleofection. 1.0 μg of PCR DNA was subjected to HindIII digestion.

The next assay relates to CHO K1 cells. Nature of the assay: Targeted integration of double stranded donor at glutamine synthetase (GS) locus, RFLP. It counts as cell-based. As to the method: The use of DNA PKcs inhibitors during insertion of a double stranded donor in CHO K1 cells was also tested. For this experiment, a donor that was delivered either via a plasmid (FIG. 4E) or via a PCR fragment (FIG. 4F). Briefly, CHO K1 cells were transfected with Nucleofector Kit V on an Amaxa® instrument. The transfection components and their dosages were as follows: one million CHO K1 cells suspended in 100 μl of Nucleofection™ Solution V; 4 μg each of two in vitro transcribed ZFN mRNAs engineered for inducing DSBs at the glutamine synthetase locus (GS) in CHO cells (see, e.g., U.S. Pat. No. 8,153,399); 2 μg (FIG. 4E) or 4 μg (FIG. 4F) of in vitro transcribed CHO or human Rad52 mRNA; 10 μg of plasmid donor (3.8 kb) or PCR fragment donor (1.1 kb). The plasmid donor and the PCR fragment donor both carried the same target integration sequence, containing two 500 bp homologous arms, two loxP sites, and a multiple cloning site.
DNA-PKcs inhibitor NU7026 or NU7441 was added into 2 ml per well of pre-warmed culture medium in a 6-well plate at concentration of 20 μM or 16 respectively, before transfected cells were added into the medium. Cells were grown in the inhibitor-containing medium for 24 hours at 37° C. and 5% CO2. The medium was then replaced with fresh medium without inhibitor. DMSO was used as inhibitor blank control. […]

Assay [3] relates to K562 cells. Nature of the assay: TALEN-mediated targeted integration at human CCR5 locus, deep sequencing. It counts as cell-based. As for the experimental part:
See, e.g., U.S. Pat. No. 8,586,526. K562 cells were transfected by AMAXA with plasmid DNA encoding either hCCR5 TALENs or ZFNs and then the cells were treated with DMSO or DNA-PKcs inhibitor NU7441. Cells were harvested at Day 3 and Day 10 and genomic PCR was analyzed after PCR by deep sequencing.

In another assay the test system is CD34+ cells. Description: Targeted integration of ssOligo at CCR5 in primary cells, clone sequencing. It counts as cell-based. As to conditions: NU7441 3 μM, Day 3; at the expense of 5-nucleotide duplications and deletions. As to the method: Specifically, donor derived CD34+ cells were transfected 3 days after culture in medium suppressing differentiation. This was carried out by the BTX electroporation system with mRNA DNA encoding a CCR5-specific ZFN pair and a ssOligonucleotide (120 bp) which has homology to the target region and harbors a unique restriction site (Avr II). The cells were then treated twice with small molecule inhibitors as described in Example 1. In particular, the inhibitor NU7441 (DNA-PKcs-inhibitor) was added 3 hours after mRNA delivery at a concentration of 3 μM. After 15 hours, fresh inhibitors were added to the medium to counteract the decay of the inhibitors in the cell culture medium. After a further 54 hours, cells were harvested and genomic DNA was prepared for Day 3 analysis by DNA sequencing. For DNA sequencing the genomic target region of the ZFN was amplified by PCR, topo-cloned, and 96 individual clones were sequenced.

Assay [4] relates to K562 cells. Nature of the assay: Nickase ZFN with ssOligo at CCR5, Surveyor/CelI assay and sequencing. It counts as cell-based, human. The text has this: K562 cells were transfected by Amaxa electroporation system with plasmid DNA encoding a CCR5-specific ZFN pair (see, U.S. Pat. No. 7,951,925) and a single-stranded oligonucleotide (ssOligo) (120 bp) which has homology to the target region and harbors a unique restriction site (Avr II). […] Due to the less deleterious nature of this kind of DNA damage, recombination events mediated by ssDNA breaks may be preferable over DSBs. However, the frequency of gene modification mediated via ssDNA breaks is very low. DNA-PKcs and PARP inhibitors were used in an attempt to increase the frequency of gene modification mediated via ssDNA breaks (“nicks”).
Briefly, the transfected K562 cells were treated twice with either PARP1/2 inhibitor (Olaparib-5 μM) or DNA-PKcs inhibitor (NU7441-3 μM) 5 hours and 15 hours after transfection to counteract the decay of the inhibitors in the cell culture medium. After a further 54 hours, cells were harvested and genomic DNA was prepared for Day 3 analysis by Surveyor™/CelI assay, RFLP analysis and DNA sequencing as described in Example 1. The RFLP assay was carried out by digestion of the PCR amplified target locus with a restriction enzyme cutting in the integrated ssOligo. For DNA sequencing, the genomic target region of the ZFN was amplified by PCR, topo-cloned, and 96 individual clones were sequenced.

A further assay concerns HEK293 cells. Nature of the assay: Targeted integration of ssDNA oligo donor at AAVS1 locus, RFLP. Type of assay: cell-based, human. As to conditions: NU7441 10 μM. As to the method: We next used the inhibitors to measure their effect on targeted integration of single-stranded donors. Briefly, HEK293 and MCF7 cells were transfected with Nucleofector Kit V and MCF10A cells were transfected with Nuleofector™ Kit L on an Amaxa® instrument. The transfection components and their dosages were as follows: 0.8 million cells suspended in 100 μL of nucleofection solution; 3 μg each of two in vitro transcribed ZFN mRNAs engineered for inducing DSBs at the AAVS1 locus in human cells (see, e.g., U.S. Pat. No. 8,110,379); 0.3 nmol of a 100-nt ssDNAoligo donor. The oligo donor carried a HindIII restriction site at the position of 20 bp upstream of the ZFN cleavage site, and the HindIII site was used as marker for target integration analysis by RFLP. DNA-PKcs inhibitor NU7441 was added into 2 ml per well of pre-warmed culture medium in a 6-well plate at concentration of 10 μM for HEK293 and MCF7, and 15 or 20 μM for MCF10A before transfected cells were added into the medium. Cells were grown in the inhibitor-containing medium for 24 hours at 37° C. and 5% CO2. The medium was then replaced with fresh medium without inhibitor. DMSO was used as inhibitor blank control. For genomic DNA preparation, HEK293 and MCF10A cells were harvested 3 days after transfection, and MCF7 cells were harvested 5 days after nucleofection. […]

On to `O=c1cc(-c2cccc3c2Sc2ccccc2S3)oc(N2CCOCC2)c1` [KU55933], for which the “effect on mutagenic repair” value in the assay with Hepa 1-6 cells (KU55933 10 μM control) was “slight decrease”. In addition, the “effect on targeted integration” value in the assay with K562 cells [1] is recorded as “no effect”.

For the molecule `Cc1nc2c(O)cccc2c(=O)[nH]1` [NU1025], the “integration of AAVS1 oligo” value with K562 cells [2] was “detectable integration”.

Take `O=c1cc(N2CCOCC2)oc2c1ccc1ccccc12` [NU7026]: in the assay with CHO K1 cells (NU7026 alone, 20 μM), the “plasmid donor-based target integration” value is recorded as “no apparent increase”.

Take `O=c1cc(N2CCOCC2)oc2c(-c3cccc4c3sc3ccccc34)cccc12` [NU7441]: the TALEN-mediated targeted integration entry in the assay with K562 cells [3] (Day 3, vs DMSO) is on record as “up to two fold”. In the assay with K562 cells [3] (TALENs, after NU7441 treatment), the “share of all genome editing events that are targeted integrations” value is “more than half” and the “unwanted mutagenic events (Indels)” value is on record as “drastically reduced”. The targeted integration result in the assay with CD34+ cells was “slight increase”. The “increase of mutagenic repair” value in the assay with Hepa 1-6 cells (Day 10, after withdrawal of inhibitors) is on record as “about 2 fold”. Moreover, the “increase of PCR fragment donor-based target integration” value with CHO K1 cells (PCR fragment donor) is listed as “about 5 fold”. For the same molecule, the “CelI signal (indels)” value in the assay on K562 cells [4] (Nickase ZFNs co-transfected with ssOligo, NU7441 3 μM, Olaparib 5 μM) is listed as 7%. Also, the “clones with non-WT sequence (perfect targeted integration of the ssOligo)” value in the assay with K562 cells [4] (sequencing of 96 clones) is reported as “one of 96”. The “targeted integration of a single stranded donor” value in the assay on HEK293 cells was “increased”. Further, the “increase of targeted integration” value with K562 cells [1] (NU7441 3 μM, RFLP and 96 colony sequencing) is 2-3 fold.

On to `O=C(c1cc(Cc2n[nH]c(=O)c3ccccc23)ccc1F)N1CCN(C(=O)C2CC2)CC1` [Olaparib], for which the “effect on targeted integration” value with K562 cells [1] is “did not further increase”.
